Legend:
MDA-MB-231 = assay: Cytotoxicity of EP probes via CTG assay; assay type: cell-based, human; conditions: Homo sapiens, MDA-MB-231, 72 hr, read-out: MDA-MB231 EC50
Protocol: (§1) Both normal cell lines HMEC and BJ cells were also evaluated to determine therapeutic index.
(§2) The concentrations used were experimentally determined to ensure logarithmic growth during the duration of the experiment and prevent adverse effects on cell growth by DMSO exposure. The plates were incubated at 37° C. in 5% CO2 for 24 h before treatment. Stock solutions of test compounds (10 mM in DMSO) in nine 3-fold serial dilutions were dispensed via pintool (Biomek). The final concentration of DMSO was 0.3% (v/v) in each well. The plates were incubated for 72 h at 37° C. in 5% CO2 and then quenched with CellTiter-Glo® reagent (50 μL/well in 96-well plate, 30 μL/well in 384-well plate) at RT. The positive controls included staurosporine (10 μM), gambogic acid (10 μM), and a toxic quinoline generated in-house. Plates were then incubated at RT for 20 min and centrifuged at 1000 rpm for 1 min. The cytotoxicity assay was performed by using the CellTiterGlo Luminescent Cell Viability Assay kit (G7570, Promega, Madison, WI) according to the manufacturer's instructions. Luminescence was recorded in an Envision plate reader (Perkin Elmer).
(§3) For the CTG assay, 3 or 4 replicate assays were conducted for each experimental condition, and a minimum of 3 independent experiments were conducted for cellular assays. The mean luminescence of each experimental treatment group was normalized as a percentage of the mean intensity of untreated controls. EC50 values (μM) were calculated by Pipeline Pilot Software (Accelrys, Enterprise Platform, CA, USA). EC50 values (μM) from the viability assay were calculated from dose response curve-fitting via non-linear regression by using GraphPad Prism (Version 7.0 San Diego, CA).

HMEC = assay: Cytotoxicity of EP probes via CTG assay, normal cells; assay type: cell-based; conditions: Homo sapiens, HMEC, 72 hr
Protocol: as §1, §2, §3

SUM-190 IBC cells = assay: Cell viability assay (CellTiter-Glo or PI staining); assay type: cell-based; conditions: SUM190; FIG. 4E
Protocol: Different concentrations of GLE-extracted bioactive chemical components were tested for 72-h treatment periods.
Either 1×10^3-4.8×10^3 or 4×10^2-1.2×10^3 cells were seeded to each well of 96- or 384-well white polystyrene flat-bottomed plates (3610 or 8804BC, Corning) in 100 μL or 30 μL media per well, respectively. The concentrations used were experimentally determined to ensure logarithmic growth during the duration of the experiment and prevent adverse effects on cell growth by DMSO exposure. The plates were incubated at 37° C. in 5% CO2 for 24 h before treatment. Stock solutions of test compounds (10 mM in DMSO) in nine 3-fold serial dilutions were dispensed via pintool (Biomek). The final concentration of DMSO was 0.3% (v/v) in each well. […] Luminescence was recorded in an Envision plate reader (Perkin Elmer).
as §3

MCF10A = assay type: cell-based
Protocol: As a control, normal human skin fibroblasts (BJ) cells and non-cancerous mammary epithelial cells (MCF10A) were used.
Cell viability assays (MTT or PI staining assays) in SUM-149, SUM-190, MDA-MB-231, and MCF10A cells were performed as we previously described [14].

[1] = system: additional cancer cellular models; assay: Cell viability assay, additional cancer models; assay type: cell-based
Source text: Therefore, EP exerts selective effects on cancer cell viability, similar to the effects obtained with whole mushroom extract (GLE), indicating an ample therapeutic window for this compound.

SUM-149 cells = assay: Colony formation assay; assay type: cell-based, human; conditions: 72 h treatment, 10 d culture
Protocol: Cells commonly fail to bypass the G1 phase of the cycle due to mutations or DNA damage, which can result in apoptosis. […] In addition, caspase 3/7 activity assays were performed as an alternate method of apoptosis detection.
SUM-149 cells (1.5×10^6 cells/well) were plated on a 6-well plate. Two days later, cell media was changed to 5% FBS, and cells were incubated at 37° C. in a 5% CO2 atmosphere for 1 h before vehicle (0.1% DMSO) or EP (5-40 μM) was added. After 72 h of treatment, cells were trypsinized and reseeded at 200 cells/mL per well in 24-well plates. After 10 d of culture, colonies were visualized by crystal violet staining, and the colony numbers were counted under a microscope.

[2] = system: MDA-MB-231 breast cancer cells; assay: De novo in-cell protein synthesis (click assay); assay type: cell-based, human; conditions: 2 h treatment; EP 20 μM
Protocol: First, 2.5×10^4 cells/well were seeded in 8-well μ-slides (Ibidi®, #80826) and incubated at 37° C. for 12 h. The cells were treated with vehicle, compounds Ganoderic acid A or EP, or cycloheximide (positive control) for 2 h to determine protein synthesis as nascent proteins generated using Biovision's EZClick™ Global Protein Synthesis Assay Kit, (#K715-100, Milpitas, CA). The assay includes a robust chemical method based on an alkyne containing o-propargyl-puromycin (OP-puro) probe, which stops translation by forming covalent conjugates with nascent polypeptide chains. Truncated polypeptides are rapidly turned over by the proteasome and can be detected based on the subsequent click reaction with a fluorescent azide. The reaction was conducted according to the manufacturer's protocol. Cells were imaged at 20× with a Nikon C2 scanning confocal microscope, and the whole image montage was quantified by using Gen5 Software and Lionheart™ FX Automated Microscope (BioTek, Winooski, VT).

[3] = system: AKT isoforms, BCL-XL, Cyclin D1, c-Myc, PARP in SUM-149 cells; assay: Immunoblots of signaling proteins; assay type: cell-based, human
Source text: Studies that focus on drivers of cancer cell survival and invasion signaling show the important role of the AKT isoforms in breast cancer. AKT1 and AKT3 are associated with breast cancer invasion, and PTEN-deficient tumors depend on AKT2 for maintenance and survival. […] Regulation of AKT isoform expression by EP is extremely similar to what the inventors reported with whole mushroom GLE in the same breast cancer cell lines.
Because EP induced apoptosis, its effects on the expression on anti-apoptosis proteins BCL-2 and BCL-XL, which block the release of cytochrome C from the mitochondria were investigated. […] The apoptosis inducing effects of EP in SUM-149 cells were investigated by monitoring PARP cleavage.
Breast cancer cells treated with vehicle or EP were lysed, and equal total protein was resolved via SDS-PAGE and immunoblotted with indicated antibodies (Cell Signaling Technologies, Abcam, Sigma) as described previously.

Solubility observations = assay type: physicochemical
Protocol: One of the liabilities with EP is sharing its core with cholesterol, an amphipathic molecule with part-water soluble, part-water insoluble character. Thus, while able to readily cross the cell membrane, the ability to deliver the pure compound faces challenges. EP's solubility properties are poor in DMSO or water unless warmed up to 30° C. However, in this report, EP's derivative, EP sulfonamide, was soluble at 10 mM in DMSO. Thus, the generation of a selective anti-cancer compound with greater potency than EP, and ample therapeutic window when compared to BJ normal cells, was accomplished.

[4] = assay type: physicochemical; conditions: 168 hr at RT
[5] = Incubation with NAC monitored by NMR and LC-MS; assay type: physicochemical; conditions: DMSO, 24 h, 37° C.
Protocol: Live-cell CellROX® assays for oxidative stress detection were conducted to evaluate whether GA-01, ergosterol, 5-6-dihydroergosterol and EP trigger intrinsic apoptosis pathways by inducing ROS. […] Menadione or t-Butyl hydrogen peroxide (TBHP) were positive controls (FIGS. 7 and S5) and co-treated with N-acetyl cysteine (NAC) to confirm that the signal was due to ROS formation induced by the compound. […] Furthermore, the possibility of the endoperoxide motif to react with NAC, was assessed EP was incubated with NAC in DMSO for 24 h at 37° C. […] Thus, the ability of EP to induce ROS could potentially be via a different mechanism from that of TBHP in MCF-7 cells.

## CC(C)[C@@H](C)/C=C/[C@@H](C)[C@H]1CC[C@@H]2[C@]1(C)CC[C@H]1[C@]23C=C[C@]2(C[C@@H](O)CC[C@]12C)OO3 [EP, ergosterol peroxide]
MDA-MB-231
  EC50: 18 µM
HMEC
  EC50: > 20 µM
SUM-190 IBC cells
  EC50: 43 µM
MCF10A
  cytotoxicity in MCF10A non-cancerous mammary epithelial cells: did not induce cytotoxicity
[1]
  EC50: 7 to 22 µM
SUM-149 cells
  number and size of colonies formed: concentration-dependent decrease
[2]
  de novo protein synthesis inhibition: do not inhibit de novo protein synthesis
[3]; SUM-149
  AKT2 levels: decreases
  AKT3 levels: not affecting
  expression of BCL-XL: significantly reduces
  expression of Cyclin D1: significantly reduces
  expression of c-Myc: significantly reduces
  expression of p-AKT1 (Ser 473): significantly decreases
  p-AKT2: without affecting
  total AKT1 levels: decreases
[3]; SUM-149, 24 h, EP 30 μM
  PARP cleavage: induces PARP cleavage
  total PARP levels: significantly reduces
Solubility observations
  solubility properties (in words): poor
[4]
  precipitation on standing: precipitation
[5]
  reaction of the endoperoxide with NAC: no observable olefin migration or opening of the endoperoxide was detected

— patent publication US12263177B2, “Biologically active ganoderma lucidum compounds and synthesis of anticancer derivatives; ergosterol peroxide probes for cellular localization” (priority 2019, dated 2025)
